Results on two molecules are retold here after patent publication US20150065440A1 (Progen Pharmaceuticals Limited, priority 2007, published 2015).

What is called Kd is the equilibrium constant for the complex coming apart. One may read the Ki as the equilibrium dissociation constant of an inhibitor or competing ligand from its target.

Test [1] relates to HSV-2. The test can be described thus: Anti-HSV screening assay (viral plaques), HSV-2. To be noted: 100 μg/mL, viral plaques relative to mock treated controls. It is filed as cell-based. The protocol:
(§1) African green monkey kidney (GMK AH1) cells^46 were cultured in Eagle's minimum essential medium (EMEM) supplemented with 2% calf serum, 0.05% Primaton RL substance (Kraft Inc., Norwich, USA) and antibiotics. Human epidermoid carcinoma (HEp-2) cells were cultured in Dulbecco's modified EMEM (DMEM) supplemented with 10% fetal calf serum and antibiotics. […] The RSV strain A-2^50 was used. The RSV stock was prepared as described by Hallak et al.^51 and stored at −70° C. in the presence of 40% sucrose^52.
(§2) The viral infectivity (the plaque number-reduction) assay and the plaque size-reduction assay were carried out as described previously^17. […] Subsequently, the cells were washed with 2 mL of EMEM and overlaid with 1% methylcellulose solution in EMEM. The plaques were visualized by staining with crystal violet solution after 2 (HSV-2) or 3 (HSV-1) days of incubation at 37° C. […] When the compounds were screened for anti-HSV or anti-RSV activity, mixtures of 200 PFU of the virus and the test compound (100 μg/mL) in serum-free EMEM were incubated for 10 min at room temperature before addition to cells and during the entire period of viral infection of cells and the development of viral plaques. In the plaque size-reduction assay, the compounds were added to cells (in methylcellulose overlay medium) after 2 h period of virus infection of cells in the absence of the inhibitor. After 2-3 days of incubation at 37° C., the viral plaques were visualized by staining the cells with 1% solution of crystal violet. For each compound tested, the images of twenty neighboring plaques were captured using a Leica DC300 digital camera attached to a Leitz-Wetzlar Diavert microscope. The area of each plaque was determined using IM500 image software (Leica). Similar protocols were used for RSV, except that the assays were performed in HEp-2 cells and DMEM supplemented with 2% heat-inactivated fetal calf serum was used instead of EMEM.

In test [2] the test system is RSV. As to the kind of experiment: Anti-RSV screening assay (viral plaques). It is filed as cell-based. Conditions: 100 μg/mL, viral plaques relative to mock treated controls. The procedure:
as §1, §2

The subject of test [3] is HSV-1. The test can be described thus: Anti-HSV screening assay (viral plaques), HSV-1. It is filed as cell-based. To be noted: 100 μg/mL, viral plaques relative to mock treated controls. The protocol: as §1, §2
For test [4], the target named is FGF-2 (Homo sapiens, UniProt P09038). As to the kind of experiment: Growth factor binding assay (SPR solution affinity), FGF-2. Conditions: SPR, HBS-EP buffer containing 0.3 M NaCl, 25° C.; read-out: Kd FGF-2. An outline of the steps: (§3)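 Kd measured by SPR solution affinity: fixed growth factor with varying ligand competing for heparin-coated sensorchip, 25 °C. Buffer HBS-EP pH 7.4 (150 mM NaCl) for FGF-1 and VEGF; FGF-2 with 0.3 M NaCl. Duplicate values averaged.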
Sequence of FGF-2 (P09038 143-288, species assumed): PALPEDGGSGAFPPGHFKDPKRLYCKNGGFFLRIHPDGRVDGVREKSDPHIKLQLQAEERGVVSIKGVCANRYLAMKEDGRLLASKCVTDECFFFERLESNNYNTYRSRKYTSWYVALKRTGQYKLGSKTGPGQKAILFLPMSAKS

Test [5] deals with T1, VEGF (Homo sapiens, UniProt P15692).
T1 sequence (P15692 207-395): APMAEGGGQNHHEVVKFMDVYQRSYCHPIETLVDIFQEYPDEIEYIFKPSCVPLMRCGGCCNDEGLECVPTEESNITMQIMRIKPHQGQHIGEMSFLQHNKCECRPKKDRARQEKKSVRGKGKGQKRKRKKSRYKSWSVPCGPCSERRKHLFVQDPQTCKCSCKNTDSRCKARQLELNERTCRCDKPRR
The test can be described thus: Growth factor binding assay (SPR solution affinity), VEGF. Conditions: HBS-EP buffer, 25° C. The method, boiled down: as §3

Test [6] concerns the target FGF-1 (Homo sapiens, UniProt P05230). The test can be described thus: Growth factor binding assay (SPR solution affinity), FGF-1. Conditions: SPR, HBS-EP buffer, 25° C.; read-out: Kd FGF-1.
For test [7], the target named is T2, recombinant human heparanase (Homo sapiens, UniProt Q9Y251).
T2 sequence (Q9Y251 158-543 limits assumed): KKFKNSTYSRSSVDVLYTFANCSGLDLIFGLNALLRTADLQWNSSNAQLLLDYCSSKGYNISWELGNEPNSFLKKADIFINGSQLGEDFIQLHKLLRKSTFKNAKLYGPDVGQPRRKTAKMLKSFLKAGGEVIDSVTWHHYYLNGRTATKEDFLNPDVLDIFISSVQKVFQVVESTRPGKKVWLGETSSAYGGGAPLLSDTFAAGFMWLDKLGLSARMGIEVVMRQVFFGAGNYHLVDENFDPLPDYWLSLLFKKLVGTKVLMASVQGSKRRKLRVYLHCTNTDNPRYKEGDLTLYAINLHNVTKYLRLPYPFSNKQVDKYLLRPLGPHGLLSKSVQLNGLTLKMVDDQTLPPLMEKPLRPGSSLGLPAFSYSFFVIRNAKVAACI
T2 sequence (Q9Y251 36-109 limits assumed): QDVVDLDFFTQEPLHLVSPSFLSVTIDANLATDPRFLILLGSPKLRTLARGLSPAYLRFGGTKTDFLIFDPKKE
As to the kind of experiment: Heparanase inhibition assay (fondaparinux cleavage, WST-1). To be noted: read-out: Ki Heparanase; IC50 converted into Ki; fondaparinux 100 μM, pH 5.0. For orientation: Tetrazolium dyes change colour on reduction, which living cells bring about.

For test [8], the system named is HUVECs. As to the kind of experiment: Matrigel microtubule formation assay. It is filed as cell-based, human. To be noted: 10 μM, relative to controls. The protocol: (§4) Medium for the proliferation studies was prepared using EGM with 2% FBS and gentamicin only. In a later study, complete EGM was used for the VEGF groups in an attempt to enhance the proliferative index of VEGF-stimulated groups. For the tube formation assay, complete medium was used with only heparin omitted. Compounds under investigation were weighed out from powder stocks and diluted in PBS to 10 mM stock solutions and stored at −80° C. For experiments, compounds were subsequently diluted in EBM-2 medium (supplemented with 2% FBS and gentamicin) to various working concentration as required.
The tube formation assay was performed essentially as described by Malinda et al., with modifications.^41 HUVECs in the fourth or fifth passage at 70-80% confluence were harvested and resuspended in Lonza endothelial growth medium (EGM2) containing all supplements as directed by manufacturer, except heparin, at a cell density of 4×10^5 cells per mL. For each set of triplicate wells, 200 μL of cells (4×10^5/mL) were treated with an equal volume of compound to obtain final concentrations of 10, 50 or 100 μM (thus ensuring 1×300 μL are available for each condition). A 100 μL aliquot of cells was then plated onto 96-well plates pre-coated with growth factor reduced Matrigel™ (50 μL for 30 min followed by a further 30 μL for 1 h) and incubated for 18-22 h. Tube formation was examined by phase-contrast microscopy and images were collected using an Olympus C5050 digital camera. Tube formation inhibition was quantitated manually from images by recording the total number of nodes connecting 3 or more tubules. Untreated HUVECs were used as a control for normal cell growth and tube formation in Matrigel.

Test [9] has as its system HUVEC proliferation induced by FGF-2. The test can be described thus: Growth factor induced endothelial cell proliferation assay, FGF-2. To be noted: 72 h; read-out: FGF-2 (IC50) inhibition of HUVEC proliferation. The test is classed as cell-based, human.
Description: (§5) HUVEC cells were maintained and subcultured according to standard cell culture protocols essentially as described by Lonza. Briefly, cells were maintained in Lonza endothelial growth media (EGM) with recommended supplements and growth factors (VEGF, FGF2, EFG, IGF, hydrocortisone, fetal bovine serum (FBS), ascorbic acid, heparin and gentamicin). Cells were subcultured when they reached 70-80% confluence by trypsinisation and reseeding in fresh growth medium in new culture vessels at 2500 to 5000 cells/cm^2 of vessel surface area. Cell counts were performed using a haemocytometer and viable cells were visualized with trypan blue.
as §4
(§6) In the first of a series of experiments, the assay was further optimized by examining the cell density and growth factor concentration required to induce maximal proliferation by growth factors. Briefly, 100 μL of cells was added to each well at concentrations between 1-3×10^3 per well. Growth factors and test compounds were then added in 50 μL volumes at specified concentrations to obtain a final volume of 200 μL. Following incubation for 70 h, 20 μL of the CellTitre 96® Aqueous One Solution Cell Proliferation Assay (Promega) was added for 2 h prior to reading the absorbance at 490 nm to obtain OD values.

Test [10] concerns HUVEC proliferation induced by FGF-1. As to the kind of experiment: Growth factor induced endothelial cell proliferation assay, FGF-1. The test is classed as cell-based, human. Conditions: 72 h; read-out: FGF-1 (IC50) inhibition of HUVEC proliferation.
Description: as §5, §4, §6

Test [11] concerns rat aortic tissue. The test can be described thus: Ex vivo angiogenic sprout assay (rat aortic angiogenesis assay). The test is classed as cell-based, Sprague Dawley rats. Conditions: 10 μM. The protocol:
Explants from rat aortas were prepared by a modification of protocols previously described^42-54. In this model, the rat aortic endothelium exposed to a three dimensional matrix of ECM-derived proteins (Matrigel™), switches to a microvascular phenotype, generating branching networks of microvessels.
Briefly, thoracic aortas were excised from 2- to 4-month old Sprague Dawley rats and trimmed of remaining fat and connective tissue. Great care was taken at every stage to reduce physical damage of the aorta. Tissue was transferred to complete EBM-2 media (Cambrex) containing 2% FCS and all Singlequots™ (Cambrex) reagents except for heparin. Meanwhile, Matrigel™ (BD Biosciences) was allowed to cool on ice and once in a liquid form, 180 μL was pipetted into 48-well tissue culture plates (Nunc). The plates were incubated at 37° C. for 30 min to allow Matrigel™ to solidify.
Aortas were prepared by cutting 1 mm ring sections and then being bisected. Aortic segments were then carefully placed on top on the Matrigel™ in the centre of each well and once orientated as required, 60 μL of extra Matrigel™ was placed on top and the plate was returned to the incubator for a further 20 min. Each well was then supplemented with 1.0 mL media in the absence (control) or presence of test compounds usually at two concentrations within the range of 1-50 μM, depending on the particular compound/experiment. Cultures were replenished as appropriate every 48 h and scoring of microvessels was carried out at various timepoints up to 8-10 days. The extent of microvessel sprouting was determined by employing a scoring system from 0-5, where 0=no microvessels to 5=diffuse angiogenesis as previously described^45. Sprouting vessels were photographed using the 4× objective with an Olympus C-7070 camera and an adaptor for the eyepiece.
In some instances, to determine the potential toxicity of compounds in this assay, the viability of the tissue was assessed by withdrawing the compound/media from the culture on day 6 or 7 and adding complete media with VEGF (typically 10 ng/mL) for up to an additional 7 days. In the absence of toxicity, the viable tissue should sprout microvessels in response to the exogenous growth factor.
The inhibitory effect of compounds of the present invention on angiogenesis was assayed using the angiogenic sprout/microvessel formation (rat aortic) assay described above. Embedding of the rat aortic tissue in Matrigel™ in the absence of any inhibitor (control) yielded extensive angiogenic sprouting (as a score of 5 indicates diffuse angiogenesis) as illustrated by FIG. 1.

Test [12] has as its system HUVEC proliferation induced by VEGF. The test can be described thus: Growth factor induced endothelial cell proliferation assay, VEGF. Conditions: 72 h; read-out: VEGF (IC50) inhibition of HUVEC proliferation. The test is classed as cell-based, human.
Description: as §5, §4, §6

Sequence of FGF-1 (P05230 whole entry, species assumed): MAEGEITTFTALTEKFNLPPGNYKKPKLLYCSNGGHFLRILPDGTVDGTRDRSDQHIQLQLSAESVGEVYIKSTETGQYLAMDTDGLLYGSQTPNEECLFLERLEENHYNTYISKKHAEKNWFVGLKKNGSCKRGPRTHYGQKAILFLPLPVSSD

On to `O=S(=O)(O)OCC1OC(OC2C(OCCCCCCCCCCCCn3cc(-c4ccccc4)nn3)OC(COS(=O)(=O)O)C(OS(=O)(=O)O)C2OS(=O)(=O)O)C(OS(=O)(=O)O)C(OC2OC(COS(=O)(=O)O)C(OS(=O)(=O)O)C(OC3OC(COS(=O)(=O)O)C(OS(=O)(=O)O)C(OC4OC(COS(=O)(=O)O)C(OS(=O)(=O)O)C(OS(=O)(=O)O)C4OS(=O)(=O)O)C3OS(=O)(=O)O)C2OS(=O)(=O)O)C1OS(=O)(=O)O` [Compound 8, 12-(4-Phenyl-[1,2,3]triazol-1-yl)dodecyl 2,3,4,6-tetra-O-sodium sulfonato-α-D-mannopyranosyl-(1→3)-2,4,6-tri-O-sodium sulfonato-α-D-mannopyranosyl-(1→3)-2,4,6-tri-O-sodium sulfonato-α-D-mannopyranosyl-(1→3)-2,4,6-tri-O-sodium sulfonato-α-D-mannopyranosyl-(1→2)-3,4,6-tri-O-sodium sulfonato-α-D-mannopyranoside], for which, in test [1], the “Residual infectivity (%) HSV-2” value turned out to be 0.2%. Moreover, the “Residual infectivity (%) RSV” value in test [2] turned out to be 3%. Further, the “Residual infectivity (%) HSV-1” value in test [3] is on record as 7%. Further, the Kd worked out at 253 ± 25 nM in [4], 5.1 ± 1.8 nM in test [5] and 2.3 ± 1.3 nM in [6]. Besides, the Ki in test [7] was 3.5 ± 0.4 nM.

With `CC(C)CCC[C@@H](C)[C@H]1CC[C@H]2[C@@H]3CCC4CC(OCCCNC(=S)N[C@@H]5O[C@H](COS(=O)(=O)[O-])[C@@H](O[C@H]6O[C@H](COS(=O)(=O)[O-])[C@@H](O[C@H]7O[C@H](COS(=O)(=O)[O-])[C@@H](OS(=O)(=O)[O-])[C@H](OS(=O)(=O)[O-])[C@H]7OS(=O)(=O)[O-])[C@H](OS(=O)(=O)[O-])[C@H]6OS(=O)(=O)[O-])[C@H](OS(=O)(=O)[O-])[C@H]5OS(=O)(=O)[O-])CC[C@]4(C)[C@H]3CC[C@]12C.[Na+].[Na+].[Na+].[Na+].[Na+].[Na+].[Na+].[Na+].[Na+].[Na+]` (stereo partly drawn) [Compound 139, 1-[(Cholestan-3-yloxy)propyl]-3-[2,3,4,6-tetra-O-sulfo-α-D-glucopyranosyl-(1→4)-2,3,6-tri-O-sulfo-α-D-glucopyranosyl-(1→4)-2,3,6-tri-O-sulfo-β-D-glucopyranoside]thiourea, decasodium salt], the “Microtubule Formation % inhibition at 10 μM” value in [8] was 36%. The values for the IC50 in [9], in test [10] and in [12] were 1500 nM, 2160 nM and 2310 nM, respectively. For the same molecule, the “% Inhibition of Angiogenesis (10 μM)” value in test [11] turned out to be 92%. Moreover, the Kd in test [4] came out at 880 ± 110 nM; in [5] it was 379 ± 13 nM; in [6], 72 ± 12 nM.
